# From patent publication US20230082611A1, “COMPOSITIONS AND METHODS FOR THE TREATMENT OF RESPIRATORY SYNCYTIAL VIRUS” (Cidara Therapeutics, Inc., priority 2019, published 2023)
# Key:
# Type in all cases: cell-based
# RSV Long strain = test: RSV microneutralization assay, RSV Long strain; details: human respiratory syncytial virus; MOI 0.002, HEp-2 cells, day 6; read-out: RSV Long EC50
# Experimental: (§1) Duplicate 10-fold serial dilutions of compound in DMEM with 2% HI-FBS, 1× P/S, 2 mM L-Gln were prepared in 96-well tissue culture plates at 60 μL/well. The RSV Long strain (RetroVirox, San Diego), RSV A2 strain (Virapur, San Diego), RSV B1 strain (RetroVirox, San Diego), or RSV strain CH18537 (RetroVirox, San Diego), were diluted in DMEM with 2% HI-FBS, 1× P/S, 2 mM L-Gln and 60 μL/well added to 60 μL compound for a multiplicity of infection (MOI) of 0.002 (Long, A2), 0.003 (B1), or 0.004 (CH18537). Virus only (no drug) and cells only (no virus, no drug) controls were included on each plate. The compound-virus mix was incubated for 1 h at 37° C. and 5% CO2. After 1 h, medium was removed from HEp-2 cells by aspiration and wells washed once with 100 μL/well 1×PBS pH 7.4 (Fisher cat #MT21040CM). The compound-virus mix (100 μL/well) was added to the cells and incubated for 1 h at 37° C. and 5% CO2 prior to addition of 100 μL/well of DMEM with 2% HI-FBS, 1× P/S, 2 mM L-Gln (200 μL final vol) and incubation at 37° C. and 5% CO2. On day 6 post infection, supernatant was aspirated and cells fixed with 100 μL/well ice-cold 80% acetone in 1×PBS for 20 min at 4° C. The acetone was aspirated and plates air-dried for 20 min at room temperature. The plates were washed 3× with 200 μL/well 1×PBS, 0.05% Tween-20 (PBST) and blocked with 200 μL/well 5% non-fat dry milk (Fisher cat #50-195-952) in PBST for 1 h with shaking (500 rpm) on an orbital plate shaker. The blocking solution was discarded and cells incubated with 100 μL/well mouse anti-F protein antibody (MilliporeSigma cat #MAB8599) diluted 1:2,000 in diluent (blocking solution diluted 1:1 in 1×PBS pH 7.4) for 2 h with shaking. Plates were washed 5× with 300 μL/well PBST and incubated with 100 μL/well HRP-conjugated goat anti-mouse IgG antibody (SouthernBiotech cat #1030-05) diluted 1:1,000 in diluent for 1 h with shaking. Plates were washed 5× with 300 μL/well PBST and incubated with 100 μL/well TMB substrate (Fisher cat #BDB555214) for ˜5 min. The reaction was stopped with 100 μL/well 1N H2SO4. Absorbance was read at 450 nm with an EnSpire multimode plate reader (PerkinElmer). The mean A450 for the cells only control was subtracted from all A450 values, and the percent virus neutralisation calculated for each compound concentration, relative to the virus only control.
# RSV B1 = test: RSV plaque reduction assay, RSV B1; details: human respiratory syncytial virus, HEP-2 cells, 6 days, read-out: EC50 RSV B1 MOI 0.0001
# Experimental: (§2) An RSV plaque reduction assay was performed according to the following protocol. On Day 1, HEP-2 cells were seeded in 24-well plates at 5×10E5 cells/well/500 ul. On Day 2, once the cells are at 100% confluency, the cells were infected at a viral dilution of approximately 30 plaques per well in DMEM+2% FBS infection buffer and treated with compound. The medium was aspirated and cells were infected with 90 ul of viral dilution per well. Then, cells were treated with 10 ul of 10× compound resulting in a final concentration of between 1 nM-10 uM of the compound. The cells were incubated for 2 h at room temperature, rocking every 15 minutes. After 2 h, the inoculum/compound mixture is removed. 450 ul of overlay media (1 part Avicel 2.5%; 1 part DMEM+2% FBS) was added to the well and the cells were treated with 50 ul of 10× compound resulting in a final concentration of 1 nM-10 uM of the compound. The cells were incubated for 6 days at 37 deg C.
# (§3) For staining and quantification: The infected cell plates were fixed with 100% methanol for 10 to 30 minutes. The plates were washed three times with 5% milk/PBS, 1 mL/well. A primary antibody, goat anti-RSV polyclonal antibody (Chemicon Cat #AB1128), diluted in 5% milk/PBS at 1:1000 was put onto each well. […] The plates were rinsed 3 times with deionized water, air-dried and the number of plaques was counted.
# RSV Long = test: RSV plaque reduction assay, RSV Long; details: human respiratory syncytial virus, HEP-2 cells, 6 days, read-out: EC50 RSV Long MOI 0.0001
# Experimental: as §2, §3
# RSV A2 strain = test: RSV microneutralization assay, RSV A2 strain; details: human respiratory syncytial virus; MOI 0.002, HEp-2 cells, day 6
# Experimental: as §1, with “HEp-2 cells (ATCC #CCL-23) were seeded at 5E4/well/200 μL in DMEM (Fisher cat #11965118) supplemented with 10% heat-inactivated (HI) fetal bovine serum (HI-FBS; Fisher cat #10-082-147), 1× penicillin-streptomycin (P/S, 100 μg/mL; Fisher cat #MT30002C), and 1× L-glutamine (L-Gln, 2 mM; Fisher cat #25030-164) in 96-well tissue culture treated plates (Fisher cat #08-772-17) and incubated overnight at 37° C. and 5% CO2. Duplicate” for “Duplicate”
structure (smiles),measurement,setting,value
C#CCOCCOCCOCCOCCOCCCCn1c(CN2C(=O)C3(CCN(C(=O)OC(C)(C)C)CC3)c3ccncc32)nc2cc(Cl)ccc21 [Int-42],EC50,RSV Long strain,0.22 nM
same,EC50,RSV B1,13 nM
same,EC50,RSV Long,17 nM
same,EC50,RSV A2 strain,0.88 nM
